Results on eight compounds are retold here after ChEMBL document CHEMBL2311504, “Inhibition of the human deacylase Sirtuin 5 by the indole GW5074” (Bioorg Med Chem Lett, 2013).

Structures are written as SMILES. pIC50: −log10 of the molar value. Active and inactive are the calls of the source. No cut-off for these calls is given here.

For orientation: inhibition means the share of the control response that was lost under treatment. By pIC50 is commonly meant the negative decadic logarithm of the IC50, by convention in mol/L.

In experiment [1] the target is T1, NAD-dependent protein deacylase sirtuin-5, mitochondrial (Homo sapiens, UniProt Q9NXA8). Nature of the experiment: Inhibition of human Sirt5 desuccinylation activity using SKEYFS-succinylLys-QK as substrate at 100 uM after 60 mins by glutamate dehydrpgenase-coupled assay.
Target sequence in this assay (Q9NXA8 37-310 limits assumed): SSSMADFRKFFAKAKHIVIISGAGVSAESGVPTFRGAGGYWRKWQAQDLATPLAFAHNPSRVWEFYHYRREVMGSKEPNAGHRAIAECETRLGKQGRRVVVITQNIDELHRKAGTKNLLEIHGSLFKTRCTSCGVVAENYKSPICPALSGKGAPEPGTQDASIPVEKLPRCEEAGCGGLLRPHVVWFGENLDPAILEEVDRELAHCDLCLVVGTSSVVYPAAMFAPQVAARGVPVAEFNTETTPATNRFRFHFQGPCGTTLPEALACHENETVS
The target of experiment [2] is T1, NAD-dependent protein deacylase sirtuin-5, mitochondrial. Nature of the experiment: Inhibition of human Sirt5 deacetylation activity using FKRGVL-acetylLys-EYGVKV as substrate at 100 uM after 60 mins by glutamate dehydrogenase-coupled assay.
Target sequence in this assay (Q9NXA8 37-310 limits assumed): as above
Experiment [3] shares this target. Nature of the experiment: Inhibition of human Sirt5 desuccinylation activity using SKEYFS-succinylLys-QK as substrate assessed as activity remaining at 100 µM measured for 20 mins by MS analysis.
Target sequence in this assay (Q9NXA8 37-310 limits assumed): as above
Experiment [4] has the same target. In words: Inhibition of human Sirt5 desuccinylation activity using SKEYFS-succinylLys-QK as substrate measured for 15 mins by MS analysis.
Target sequence in this assay (Q9NXA8 whole entry): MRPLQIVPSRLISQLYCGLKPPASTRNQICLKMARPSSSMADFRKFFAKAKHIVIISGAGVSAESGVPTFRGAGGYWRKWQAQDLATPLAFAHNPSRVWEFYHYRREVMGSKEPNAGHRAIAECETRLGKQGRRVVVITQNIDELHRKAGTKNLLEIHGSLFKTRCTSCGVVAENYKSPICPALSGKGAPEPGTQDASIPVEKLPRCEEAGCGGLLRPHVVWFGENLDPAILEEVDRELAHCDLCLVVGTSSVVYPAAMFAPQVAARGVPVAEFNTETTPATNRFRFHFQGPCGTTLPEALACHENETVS
For experiment [5] the target is unchanged. Nature of the experiment: Inhibition of human Sirt5 deacetylation activity using FKRGVL-acetylLys-EYGVKV as substrate assessed as activity remaining at 100 µM measured for 20 mins by MS analysis.
Target sequence in this assay (Q9NXA8 37-310 limits assumed): as the sequence (Q9NXA8 37-310 limits assumed) above
Experiment [6] has the same target. Nature of the experiment: Inhibition of human Sirt5 deacetylation activity using FKRGVL-acetylLys-EYGVKV as substrate measured for 15 mins by MS analysis.
Target sequence in this assay (Q9NXA8 whole entry): as the sequence (Q9NXA8 whole entry) above
For experiment [7] the target is unchanged. Nature of the experiment: Selectivity ratio of IC50 for human Sirt5 deacetylation activity to IC50 for human Sirt5 desuccinylation activity.
Target sequence in this assay (Q9NXA8 37-310 limits assumed): as the sequence (Q9NXA8 37-310 limits assumed) above
Experiment [8] has the same target. Nature of the experiment: Inhibition of human Sirt5 deacetylation activity using SKEYFS-acetylLys-QK as substrate measured for 15 mins by MS analysis.
Target sequence in this assay (Q9NXA8 whole entry): as the sequence (Q9NXA8 whole entry) above

Consider `CC(NC(=O)c1ccccc1/N=C/c1c(O)ccc2ccccc12)c1ccccc1` (stereo not given), for which the inhibition result in experiment [1] and in experiment [2] was “inactive” throughout.

Consider `CC(C(=O)Nc1cccc(/N=C/c2c(O)ccc3ccccc23)c1)c1ccccc1` (stereo not given), for which the inhibition in experiment [1] is 20%. Moreover, the inhibition result in experiment [2] is “inactive”.

Regarding `NC(=O)C1CCCc2c1[nH]c1ccc(Cl)cc21` (stereo not given), the inhibition result in experiment [1] and in experiment [2] was “inactive” throughout.

On to `O=C1Nc2ccc(I)cc2C1=Cc1cc(Br)c(O)c(Br)c1` [GW305074X], for which the Activity is 15% in experiment [3] and 30% in experiment [5]. Also, the pIC50 is 4.71 in experiment [4], 4.01 in experiment [6] and 3.70 in experiment [8]. The Ratio IC50 in experiment [7] is 4.

Consider `N#C/C(=C\c1ccc(-c2cc(Cl)ccc2Cl)o1)C(=O)Nc1cccc2ncccc12`, for which the inhibition entry in experiment [1] and in experiment [2] was “inactive” in each case.

On to `O=C1Oc2ccc3cc(Br)ccc3c2CC1c1ccccc1` (stereo not given), for which the inhibition entry in experiment [1] and in experiment [2] was “inactive” in each case.

Regarding `Cc1ccc(C(=O)Nc2ccc(S(=O)(=O)O)c3cc(S(=O)(=O)O)cc(S(=O)(=O)O)c23)cc1NC(=O)c1cccc(NC(=O)Nc2cccc(C(=O)Nc3cc(C(=O)Nc4ccc(S(=O)(=O)O)c5cc(S(=O)(=O)O)cc(S(=O)(=O)O)c45)ccc3C)c2)c1`, the inhibition in experiment [1] is 20%. For the same compound, the inhibition entry in experiment [2] is “Active”.

As to `O=C(Nc1ccccc1-c1cn2c(CN3CCNCC3)csc2n1)c1cnc2ccccc2n1`, the inhibition result in experiment [1] and in experiment [2] was “inactive” in each case.
